We go through five compounds from patent US11007182B2, “Use of atpenin to activate innate immunity” (Health Research, Inc., priority 2015, dated 2021).

Common to all, as to format: cell-based, human
Experiment [1] concerns APOBEC3A-mediated RNA editing. Nature of the experiment: SDHB c.136C>U site-specific RNA editing assay (RT-PCR) in monocyte-enriched PBMCs. The conditions noted are these: for effect on hypoxia-induced RNA editing: hypoxia 1% O2; for effect on hypoxia-induced RNA editing / induction of APOBEC3A-mediated RNA editing in normoxia: atpenin A5 1-3 μM, DMOG 1 mM, myxothiazol 1 μM; for induction of APOBEC3A-mediated RNA editing in normoxia: TTFA 1 mM. The procedure: Peripheral blood mononuclear cells of anonymous platelet donors were isolated from peripheral blood in Trima Accel™ leukoreduction system chambers (Terumo BCT®, Lakewood, Colo.) after thrombocytapheresis, in accordance with a protocol approved by the institutional review board of Roswell Park Cancer Institute. A density gradient centrifugation method using polysucrose-containing Lymphocyte Separation Medium (Mediatech®, Manassas, Va.) was used for PBMC isolation. MEPs were prepared from PBMCs using the well-established cold aggregation method with slight modification (Mentzer et al 1986). Briefly, PBMCs were subjected to gentle rocking at 4° C. for an hour and aggregated cells that sedimented through fetal bovine serum (FBS; VWR®, Radnor, Pa.) were collected as MEPs (monocyte-enriched PBMCs) after 0.5-3 hours for high monocyte enrichment (˜70% monocytes as assessed by immunofluorocytometry for CD14), or after 8-16 hours for mild enrichment (˜20%-40% monocytes). MEPs were cultured at a density of at least 20 million per ml in 1 or 2 ml per well of 6- or 12-well standard tissue culture plates under 5% CO2 in RPMI-1640 medium (Mediatech®) with 10% FBS, and 100 U per ml penicillin and 100 μg per ml streptomycin (Mediatech®). CD14 positive monocytes were separated in certain experiments from MEPs that were initially cultured for 1 or 2 days using magnetic beads and donut-shaped magnet (EasySep cell isolation kit purchased from STEMCELL Technologies).
For hypoxia, cells were cultured under 1% O2, 5% CO2 and 94% N2 in an XVIVO SYSTEM® (a cell culture system) (Biospherix®, Lacona, N.Y.). ‘Universal’ type I IFN, a hybrid of N-terminal IFNα-2 and C-terminal IFNα-1, produced in E. coli were obtained from PBL Assay Science® (Piscataway, N.J.), and respectively used at 300 U per ml. Unless noted otherwise, hypoxia and/or interferon treatments were for 24 hours. Differential viability of MEPs after 1-day culture in normoxia versus hypoxia was not observed as evaluated by Trypan blue stain.
SDHB c.136C>U site-specific RNA editing, catalyzed by APOBEC3A cytidine deaminase, was quantified by RT-PCR as described (Baysal et al 2013). Total RNA, genomic DNA and plasmid DNA were isolated using material and methods provided with TRIzol™, DNA Wizard Genomic DNA Purification Kit (Promega®), and Plasmid Kit (Qiagen®, Germantown, Md.), respectively. RNA/DNA was quantified by spectrophotometry on a Nanodrop™ 2000 instrument (Thermo Fisher®). Proteins were quantified using Bio-Rad® Dc™ assay with bovine serum albumin standards. Statistical tests were two-tailed and were performed using R 3.0, Excel™ 2010 (Microsoft®, Redmond, Wash.), or Prism™ 6.0 (GraphPad®, San Diego, Calif.) software.
Atpenin A5 is purchased from Cayman Chemical (CAS 119509-24-9), dissolved in DMSO and used in final concentrations of 1-3 μM in culture. DMOG (dimethyloxalylglycine; CAS 89464-63-1) and myxothiazol (CAS 76706-55-3) are purchased from Sigma-Aldrich, dissolved in DMSO and used in final concentrations of 1 mM and 1 μM, respectively.

Experiment [2] has as its system HIF1α. Nature of the experiment: HIF1α stabilization (immunoblotting) in CD14 negative lymphocytes and CD14 positive monocytes. The conditions noted are these: FIG. 5. The source says:
FIG. 5. HIF1α is stabilized in CD14 negative lymphocytes, but not in CD14 positive monocytes in hypoxia (H, 1% O2, day 1). […] CD14± cells are unsorted PBMCs.
(§1) We used primary human monocytes and 293T HEK cells to investigate their response to hypoxia and to cell-permeable complex II inhibitors (atpenin A5, TTFA) using cell culture methods, high throughout RNA sequencing, qPCR, immunoblotting and oxygen consumption assays.

The next experiment relates to monocyte-enriched PBMCs. Nature of the experiment: Oxygen consumption assay (oxygen-quenched fluorescent dye) in monocyte-enriched PBMCs. The settings on record: averages from 3 donors' monocyte-enriched PBMCs. The protocol: (§2) FIG. 6. Inhibition of complex II reduces oxygen consumption and antagonizes HIF-1. […] DMSO indicates the untreated vehicle control. […] The oxygen levels are measured by a fluorescent dye, which is quenched by oxygen (i.e., more fluorescence, less oxygen). Results are averages from 3 donors' monocyte-enriched PBMCs with SEMs shown in dashed lines.
as §1

The subject of experiment [3] is HIF1α. Put plainly: HIF1α stabilization (immunoblotting) in 293T cells. The conditions noted are these: for HIF1α stabilization in mild hypoxia: 6% O2. The protocol:
as §2, §1

Experiment [4] concerns hypoxia-related gene expression in monocytes. Put plainly: RNA seq and RT-qPCR of hypoxic gene expression in monocytes.
Excerpt: FIG. 4. AtA5 treatment in normoxia induces hypoxic gene expression in monocytes.
as §1
On the contrary, AtA5 reduces cellular oxygen consumption in peripheral blood mononuclear cells and inhibits HIF-la stabilization in mildly hypoxic conditions in 293T cells (FIG. 6).

As for `COC(=O)CNC(=O)C(=O)OC` [DMOG, dimethyloxalylglycine], the “effect on hypoxia-induced RNA editing” value in experiment [1] (MEPs) was “inhibited hypoxia-induced RNA editing”. For the same compound, the “induction of APOBEC3A-mediated RNA editing in normoxia” value (from here on “induction … in normoxia”) in experiment [1] (normoxia, MEPs) is on record as “did not induce RNA editing in normoxia”. In the experiment with HIF1α [2], the “HIF1α stabilization in normoxia in lymphocytes and monocytes” value is “stabilizes HIF1α in both lymphocytes and monocytes”.
As to `O=C(CC(=O)C(F)(F)F)c1cccs1` [TTFA, thenoyltrifluoroacetone], the “induction … in normoxia” value in experiment [1] (normoxia, MEPs) was “induces RNA editing in normoxia”.
In the case of `COc1[nH]c(=O)c(C(=O)[C@@H](C)C[C@H](C)[C@@H](Cl)CCl)c(O)c1OC` [atpenin A5], the “oxygen consumption relative to control cells” value with monocyte-enriched PBMCs is on record as “reduces oxygen consumption relative to control cells (blue), but does not abolish it”. Further, the “HIF1α stabilization in mild hypoxia” value in the experiment on HIF1α [3] (293T cells, day 1) is reported as “inhibits HIF1α stabilization in mild hypoxia”. The “HIF-1α stabilization in normoxia in 293T cells” value in the experiment with HIF1α [3] (normoxic treatment, 293T embryonic kidney cells, FIG. 6) is on record as “does not stabilize HIF-la”. For the same compound, the “cell population in which induced RNA editing occurs” value in experiment [1] (CD14 positive and CD14 negative cells separated from MEPs after culture) is reported as “induced RNA editing occurs in CD14+ monocytes”. Moreover, the “effect on hypoxia-induced RNA editing” value in experiment [1] (MEPs) is “without inhibiting the hypoxia-induced RNA editing”. The “RNA editing levels induced in normoxia relative to hypoxic stimulation” value in experiment [1] (normoxia versus hypoxia, FIG. 1) was “comparable to levels observed upon hypoxic stimulation”. Also, the “induction … in normoxia” value in experiment [1] (normoxia, MEPs) is “induced APOBEC3A-mediated RNA editing in normoxia”. Besides, the “effect on RNA editing in combination with interferon” value in experiment [1] (normoxia, MEPs, type I IFN 300 U per ml) is listed as “synergistic effect with interferon-induced RNA editing levels”. In experiment [1] (normoxia, p=0.00013, two-sided Wilcoxon pairwise test), the “monocyte-enriched PBMCs from donors (biological replicates) with normoxic induction of RNA editing” value is on record as 19 of 19. The “HIF1α stabilization in normoxia in lymphocytes and monocytes” value with HIF1α [2] is recorded as “does not stabilize HIF1α in normoxia in lymphocytes or monocytes”. Also, the “effect on A3A-mediated RNA editing or transcript induction in hypoxic monocytes” value in experiment [4] (hypoxic monocytes) was “does not inhibit A3A-mediated RNA editing or transcript induction in hypoxic monocytes”. Moreover, the “expression of hypoxia-related and pro-angiogenic genes (RT-qPCR)” value in experiment [4] (normoxic treatment of monocytes) was “causes upregulation of many hypoxia-related and pro-angiogenic genes including VEGFA, CXCL8 (IL8) and CXCR4”. In addition, the “transcriptome-scale changes (RNA seq and RNA editing analyses)” value in experiment [4] (normoxic treatment of monocytes, FIG. 4) is recorded as “closely mimics the hypoxia effects in inducing transcriptome-scale changes”.
Consider `CO/C(=C/C(N)=O)[C@H](C)[C@H](/C=C/c1csc(-c2csc([C@@H](C)/C=C/C=C/C(C)C)n2)n1)OC` [myxothiazol], for which the “oxygen consumption relative to control cells” value in the experiment with monocyte-enriched PBMCs is listed as “completely inhibit oxygen consumption”. Moreover, the “HIF1α stabilization in severe hypoxia” value with HIF1α [3] (1% O2, 293T cells, day 1) was “inhibits it both in mild and severe hypoxia”. The “HIF1α stabilization in mild hypoxia” value with HIF1α [3] (293T cells, day 1) is “inhibits it both in mild and severe hypoxia”. Besides, in experiment [1] (MEPs), the “effect on hypoxia-induced RNA editing” value is “inhibited hypoxia-induced RNA editing”. Besides, the “induction … in normoxia” value in experiment [1] (normoxia, MEPs) was “did not induce RNA editing in normoxia”.
Turning to antimycin A, the “oxygen consumption relative to control cells” value in the experiment with monocyte-enriched PBMCs is on record as “completely inhibit oxygen consumption”.
